Non-standard residues stand in square brackets, D forms with d. Residues, ends and D or L forms follow the SMILES beside them. *: point of attachment. 1Nal = N[C@@H](Cc1cccc2ccccc12)C(=O)O; Leu(ol) = CC(C)C[C@H](N)CO; Cbz = O=C(OCc1ccccc1)* Where only a bound is given, the exact number is not on record here.

The compound `CC(C)n1c(S(=O)(=O)c2ccc(O)cc2)nc2ccccc21` yielded a melting point of 198 °C.

With `CCC(CCCCCCCCC(C)(C)CO)N1C(=O)c2cccc([N+](=O)[O-])c2C1=O` (stereo not given), the melting point lay in the range of 66 to 68 °C.

On to `CCOc1cc(N(CC)CC)ccc1C1(N(c2ccccc2)c2ccc(NC(C)=O)cc2)OC(=O)c2ccccc21` (stereo not given), for which the melting point was in the range of 126 to 131 °C.

`CCOC(=O)C(C(=O)OCC)c1ccc(NC(=O)c2cc3c(n(CC4CCCCC4)c2=O)CCCCCC3)c(C(F)(F)F)c1` yielded a melting point of 160 to 162 °C.

For the compound `CCOc1c(Br)ccc(C(=O)OC)c1N(C)S(C)(=O)=O`, the melting point was in the range of 82 to 88 °C.

Regarding `Cn1cc(C2=C(c3cn(CO)c4ccccc34)C(=O)NC2=O)c2ccc([N+](=O)[O-])cc21`, the melting point was in the range of 210 to 213 °C.

Take `O=C(NC1CC1)c1ccc(-c2ccc3nnn(Cc4ccc5ncccc5c4)c3n2)cc1F`: the melting point was in the range of 193 to 195 °C.

As to `O=C1c2c(Cl)cccc2-n2cnc(-c3noc(C(F)(F)F)n3)c2[C@@H]2CCCN12`, the melting point lay in the range of 220 to 221 °C.

The compound `CCOc1nc(NC)nc(NC(=O)NS(=O)(=O)c2cccc3c2nnn3C)n1` showed a melting point of 203 to 209 °C.

Regarding `CC#CC1(O)CCC2C3CCC4=CC(=O)CCC4C3C(=CF)CC21CC` (stereo not given), the melting point fell in the range of 199 to 205 °C.

In the case of `N#CC(N)c1c(Cl)cccc1Cl` (stereo not given), the melting point is over 300 °C.

On to `O=C(O)c1ccc(Cl)cc1Oc1cccc(C(F)(F)F)c1`, for which the melting point worked out at 146 °C.

Turning to `CC(C)C[C@@H](CO)NC(=O)[C@H](Cc1c[nH]cn1)NC(=O)[C@H](Cc1cccc2ccccc12)NC(=O)OCc1ccccc1` (Cbz-[1Nal]-His-[Leu(ol)]), the melting point was 157 to 159 °C.

Consider `COc1ccc2c(c1)c(Cc1cc(=O)n(-c3ccc(C(F)(F)F)cc3)[nH]1)c(C)n2C(=O)c1ccc(C#N)cc1`, for which the melting point lay in the range of 92 to 94 °C.

For `O=C(O)CCCOc1cccc2c1Cc1sc(SCC(c3ccccc3)c3ccccc3)nc1-2`, the melting point lay within 137 to 138 °C.

In turn, `O=C(Nc1ccc2nc(CN3CCCC3)ccc2c1)c1ccc(-c2ccc(F)cc2)cc1` came in with a melting point of 190 to 193 °C.

In the case of `N#CC(C(=O)c1cccnc1)c1ccccc1` (stereo not given), the melting point lay within 148 to 149 °C.

`CNC(=O)Cc1cc(=O)oc2cc(OCc3cccc(Cl)c3)ccc12` displayed a melting point of 174 to 175 °C.

`O=C(Cn1nc(Cl)nc1Cl)N1CCC(c2nc(C3=NOC(c4c(F)cccc4F)C3)cs2)CC1` (stereo not given) had a melting point of 147 to 150 °C.

`O=[N+]([O-])C1NC=CN1c1cccnc1` (stereo not given): the melting point was found to be 261 °C.

Turning to `O=C(O)CCC(=O)NCCCCCC1CCSS1` (stereo not given), the melting point is 74 °C.

In turn, `CSc1ccc(C2=C(Br)C(=O)OC2)cc1` gave a melting point of 138 to 140 °C.

Turning to `CC(C)(C)[C@H]1CC[C@H](N(Cc2ccc(C(=O)NC[C@H](O)C(=O)O)cc2)C(=O)Nc2cc(C(F)(F)F)cc(C(F)(F)F)c2)CC1`, the melting point lay in the range of 185 to 187 °C.

Compound `CS(=O)c1[nH]cc(CCc2ccccc2)c1[N+](=O)[O-]` (stereo not given) came in with a melting point of 172 to 173 °C.

In turn, `COC(=O)C(C)c1ccc2c(c1)CC(=O)c1ccccc1S2` (stereo not given) had a melting point of 81 to 82 °C.

The compound `N#Cc1ccc(C=CC(=O)C2CC2)cc1` returned a melting point of 104 °C.

Take `Cc1cc(O)ccc1-c1ccc2cc(O)ccc2c1`: the melting point lay within 191 to 193 °C.

In the case of `O=C(O)c1nc2cc(N3CCN(c4ccc(F)cc4)CC3)c([N+](=O)[O-])cc2[nH]c1=O`, the melting point is 236 to 238 °C.

`CCCCOc1nc(N)c2nc(OC)n(CCS(=O)(=O)c3cccc(CC(=O)OC)c3)c2n1` came in with a melting point of 246 to 247 °C.

Compound `Cc1oc(-c2ccccc2)nc1C(O)COc1ccc(N)cc1` (stereo not given) came in with a melting point of 139 to 140 °C.

`O=C(O)c1cn(-c2cccc(I)c2)cn1` gave a melting point of 229 to 230 °C.

Take `COCCN1CCc2cc(OC)c(O)cc2C1C1(c2ccccc2Cl)CC1` (stereo not given): the melting point fell in the range of 115 to 120 °C.

In turn, `O=c1[nH]c(=S)c2[nH]cnc2n1Cc1ccc(Cl)cc1` gave a melting point of 274 to 278 °C.

The compound `Nc1ncc(-c2cccc(-n3cnc4cc(-c5ccoc5)ccc43)c2)cn1` came in with a melting point of 222 to 223 °C.

On to `CCOC(=O)Cc1ccc(NC(=O)Nc2ccccc2C(F)(F)F)cc1`, for which the melting point lay in the range of 137 to 139 °C.

As for `C[C@@H](CCC(=O)N[C@@H](Cc1ccccc1)C(=O)CSCc1ccco1)CNC(=O)COc1ccccc1`, the melting point lay within 91 to 95 °C.

`COc1ccc(-c2[nH]nc3c2C(=O)c2c(NC(=O)NN4CCOCC4)cccc2-3)cc1` had a melting point of 290 to 291 °C.

Regarding `CCNC(=S)NNC(=O)C(F)(F)F`, the melting point stood at 170 °C.

With `CCCc1nc(NCc2ccco2)nc(Nc2cccc(C(F)(F)F)c2)n1`, the melting point lay within 110 to 112 °C.

Turning to `NC1([C@@H]2CCN(c3nc4c(cc3F)c(=O)c(C(=O)O)cn4[C@@H]3C[C@@H]3F)C2)CC1`, the melting point was 232 to 234 °C.

Turning to `Nc1nccc(-c2cccc(OCC(O)CN3CCN(c4cccc(Cl)c4)CC3)c2)n1` (stereo not given), the melting point lay within 140 to 141 °C.

Compound `CCOC(=O)c1c(Cl)c2cc(Oc3ccc(C(F)(F)F)cc3)ccc2n1-c1ccc(OC(C)C)cc1` showed a melting point of 136 to 138 °C.

For the compound `CCOC(=O)C[C@H](NC(=O)/C=C/C(=O)c1ccccc1)C(=O)OCC`, the melting point lay within 91 to 93 °C.

On to `CCOC(=O)c1cn(-c2cccc(O)c2)cn1`, for which the melting point was in the range of 164 to 165 °C.

`COC(=O)c1nc(-c2ccc(Cl)cc2)n(-c2ccc(Cl)cc2Cl)n1` returned a melting point of 153 to 154 °C.

In turn, `CCOC(=O)C(=CNc1ccc(OC)c(=O)cc1)C(=O)OCC` registered a melting point of 108 to 110 °C.

Regarding `CC(=O)c1cnn2c(-c3cccc(C(F)(F)F)c3)ccnc12`, the melting point was in the range of 127 to 130 °C.

For `N#CCCCCn1cnc(NC(=S)NCC(F)(F)F)n1`, the melting point fell in the range of 136 to 138 °C.

In the case of `CCOC(=O)Cn1c2c([nH]c(=O)c1=O)CCC1=C2C=C(n2ccc(CN3CCN(C(c4ccccc4)c4ccccc4)CC3)c2)CC1`, the melting point was over 200 °C.

The compound `O=C(NCc1ccc(Cl)cc1)c1cnc2sccc2c1O` had a melting point of 238 to 240 °C.

`CON(C)C(=O)c1cc(C)c(C(c2cc(F)ccc2F)S(=O)(=O)c2ccc(F)cc2)cn1` (stereo not given) had a melting point of 156 to 158 °C.

In the case of `CCN(CC)S(=O)(=O)c1cc(-n2c(=O)cc(C(F)(F)F)n(C)c2=O)c(F)cc1Cl`, the melting point was 190 to 191 °C.

On to `O=C(Nc1ccc2c(c1)OCO2)c1ccccc1`, for which the melting point was 110 to 112 °C.

In the case of `Cc1nc(C)n(-c2cc(C)c3[nH]c(=O)ccc3c2)c1C#N`, the melting point lay in the range of 334 to 337 °C.

On to `O=C1Cc2cc(NC(=O)C(=O)N3CCC(Oc4ccc(Cl)cc4)CC3)ccc2N1`, for which the melting point lay in the range of 194 to 196 °C.

Consider `COC(=O)c1c(N)ncn1C(c1ccccc1)c1ccccc1`, for which the melting point lay within 199 to 201 °C.

In the case of `FC(F)COc1cc(NC2=NCC3(CN4CCC3CC4)O2)ncn1` (stereo not given), the melting point lay within 83 to 88 °C.

`CCOC(=O)c1cc2ccoc2nc1C(=O)OCC` yielded a melting point of 66 to 77 °C.

Take `COC(=O)c1ccc(-c2ccc(-c3ccc4c(c3)C(C)(C)CCC4(C)C)[nH]2)cc1`: the melting point fell in the range of 176 to 179 °C.

The compound `O=C(O)C1=CS[C@@H]2/C(=C\c3ccc4nc5sccn5c4c3)C(=O)N12` registered a melting point of over 250 °C.

In turn, `Cc1nc2cc(-c3ccc(C=C4SC(=O)NC4=O)cn3)cc(C34CC5CC(CC(C5)C3)C4)c2o1` came in with a melting point of over 360 °C.

With `CCN(CC)C(=O)CCc1ccc(O)c(N)c1`, the melting point is 92 to 93 °C.

In turn, `Cc1cc(C(=O)c2cccc(Cc3ccccc3)c2)c(O)c2ncccc12` came in with a melting point of 123 to 124 °C.

In the case of `O=C(O)COc1ccc(S(=O)(=O)c2cccs2)c(Cl)c1Cl`, the melting point is 179 °C.

For `CCc1c(C)nc(SCc2cc(C)ccn2)[nH]c1=O`, the melting point lay in the range of 130 to 132 °C.

In turn, `O=C(NC1C(O)=COC2=C1SC([N+](=O)[O-])C2)c1ccc(C(F)(F)F)cc1` (stereo not given) had a melting point of 219 to 220 °C.

The compound `Cc1cnc(N)c2nc(C)n(CC(C)C)c12` showed a melting point of 178 to 180 °C.

`CCN(CC)CCNc1ccc(CO)c2sc3ccc(O)cc3c(=O)c12` registered a melting point of 181 to 182 °C.

The compound `COCC(O)=C(N)C(=O)O` registered a melting point of 186 to 187 °C.

The compound `CC(=O)NC(=S)N1CCSC1c1ccccc1OCCN1CC=C(c2cccc(F)c2)CC1` (stereo not given) returned a melting point of 135 to 136 °C.

`CCNC(=S)N1CCN(c2ccc3ccccc3n2)CC1` showed a melting point of 193 to 195 °C.

`CC(Cn1nccn1)n1nnc2cc3c(=O)n(C(C)Cn4nccn4)nnc3cc2c1=O` (stereo not given) gave a melting point of 194 to 195 °C.

Regarding `CCOP(=O)(Cc1ccc(C(=O)N(Cc2ccccc2)c2ccc(Cl)cc2)cc1)OCC`, the melting point fell in the range of 81 to 82 °C.

`Cc1cc(NC(=O)C(C)(O)COc2cc(Cl)cc(Cl)c2)ccc1[N+](=O)[O-]` (stereo not given) returned a melting point of 141 to 143 °C.

`CCCCCCCCCCC1(CCCCCCCCCC)c2cc(-c3cccs3)ccc2-c2ccc(-c3cccs3)cc21` displayed a melting point of 59.9 to 60.8 °C.

`CC(=O)NC[C@H]1CN(c2ccc(C(=O)c3cnc4cnccn34)cc2)C(=O)O1` gave a melting point of 254 to 256 °C.

In turn, `CNc1cc(CC(C#N)=CNc2ccccc2)cc(N(C)C)c1Cl` yielded a melting point of 173 to 174 °C.

`CC(C)C(C)(C)[Si](C)(C)Oc1ccc2c(c1)c(I)c1n2CCC1` displayed a melting point of 97 to 98 °C.

`COc1cc(OC)c(-c2cccs2)cc1/C=C/C(=O)c1cccc(C(=O)O)c1` gave a melting point of 179 to 182 °C.

Turning to `CN1C(=O)CCC1CN1C(=O)C2(COc3cc4c(cc32)CCO4)c2ccccc21` (stereo not given), the melting point fell in the range of 72 to 76 °C.

`Fc1ccc(C#Cc2ccc(F)cc2)cc1`: the melting point fell in the range of 95 to 96 °C.

Consider `CC(C)N1CCc2ccc(NC(=N)c3cccs3)cc2C1`, for which the melting point is 110 to 111 °C.

Compound `CCOC(=O)c1ccc2c(c1)C(=O)c1nc3ccccc3c(=O)n1-2` yielded a melting point of 270 to 273 °C.

For the compound `COc1ccc(C(=O)C2=C(O)C(=O)N(c3nnc(C)s3)C2c2ccc(O)cc2)cc1` (stereo not given), the melting point is 251 °C.

`CCOC(=NC(=O)Nc1ccc(OC(F)(F)F)cc1)c1ccccc1F` returned a melting point of 93 to 95 °C.

For the origin of these results see a melting point compilation (Tetko et al.; mined from patent text by program, amines drawn as free bases though some values may be those of a salt).
